Test results reported in US20120225062A1 (priority 2011, published 2012).

Legend:
[1] = system: KMS11 (human myeloma cell line); experiment: Cell Proliferation Assay (CellTiter-Glo, 3 days); type: cell-based; conditions: KMS-11, 72 h, KMS11-luc cells
Method in brief: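 EC50 from CellTiter-Glo luminescence after 3-day, 37° C compound treatment of KMS11 cells seeded at 2000 per well in IMDM plus 10% FBS.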

Pim 1 = Pim 1 (Homo sapiens, UniProt P11309); experiment: Pim 1 AlphaScreen assay (high ATP)
Pim 2 = Pim 2 (Homo sapiens, UniProt Q9P1W9); experiment: Pim 2 AlphaScreen assay (high ATP)
Pim 3 = Pim 3 (Homo sapiens, UniProt Q86V86); experiment: Pim 3 AlphaScreen assay (high ATP)
Procedure: The activity of Pim 1, Pim 2, & Pim 3 is measured using a homogeneous bead based system quantifying the amount of phosphorylated peptide substrate resulting from kinase-catalyzed phosphoryl transfer to a peptide substrate. Compounds to be tested are dissolved in 100% DMSO and directly distributed to a white 384-well plate at 0.25 μl per well. […] This is followed by the addition of 5 μl/well of Pim 1, Pim 2 or Pim 3 kinase in assay buffer (concentrations described below). Final assay concentrations (described below) are in 2.5% DMSO. The reactions are performed for ˜2 hours, then stopped by the addition of 10 μl of 0.75 μg/ml anti-phospho Ser/Thr antibody (Cell Signaling), 10 μg/ml Protein A AlphaScreen beads (Perkin Elmer), and 10 μg/ml streptavidin coated AlphaScreen beads in stop/detection buffer (50 mM EDTA, 95 mM Tris, pH=7.5, 0.01% Tween-20). The stopped reactions are incubated overnight in the dark. The phosphorylated peptide is detected via an oxygen anion initiated chemiluminescence/fluorescence cascade using the Envision plate reader (Perkin Elmer).

Chain of Pim 1 (P11309 whole entry): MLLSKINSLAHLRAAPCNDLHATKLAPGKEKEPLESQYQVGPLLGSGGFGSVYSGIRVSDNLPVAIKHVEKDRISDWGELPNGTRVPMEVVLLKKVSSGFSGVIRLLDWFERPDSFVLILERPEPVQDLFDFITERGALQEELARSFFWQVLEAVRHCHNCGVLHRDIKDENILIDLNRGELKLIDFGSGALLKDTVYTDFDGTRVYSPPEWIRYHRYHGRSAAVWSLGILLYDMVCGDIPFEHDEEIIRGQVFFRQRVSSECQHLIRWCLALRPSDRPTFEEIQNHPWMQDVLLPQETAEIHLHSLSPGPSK
Chain of Pim 2 (Q9P1W9 whole entry): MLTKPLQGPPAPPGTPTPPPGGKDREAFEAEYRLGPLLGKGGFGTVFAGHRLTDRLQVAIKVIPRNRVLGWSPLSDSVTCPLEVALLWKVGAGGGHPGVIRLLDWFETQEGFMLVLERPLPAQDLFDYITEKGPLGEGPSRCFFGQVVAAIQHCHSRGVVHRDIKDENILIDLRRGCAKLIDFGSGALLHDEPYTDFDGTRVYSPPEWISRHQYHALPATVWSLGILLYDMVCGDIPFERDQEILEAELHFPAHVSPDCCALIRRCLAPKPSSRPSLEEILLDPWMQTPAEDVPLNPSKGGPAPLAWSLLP

EC50 [1] [nM] | IC50 (Pim 1) [nM] | IC50 (Pim 2) [nM] | IC50 (Pim 3) [nM] | Compound
1340 | 0.05 | 10.4 | 1.19 | C=CCOc1ccc(F)c(-c2nc(C(=O)Nc3cnccc3[C@H]3C[C@@H](N)[C@H](O)[C@@H](C)C3)ccc2F)c1F [Example 194, 6-(3-(allyloxy)-2.6-difluorophenyl)-N-(4-((1R,3R,4R,5S)-3-amino-4-hydroxy-5-methylcyclohexyl)pyridin-3-yl)-5-fluoropicolinamide]
49 | 0.05 | 2.2 | 1.34 | C[C@H]1C[C@@H](c2ccncc2NC(=O)c2ccc(F)c(-c3c(F)cc(CC(C)(C)O)cc3F)n2)C[C@@H](N)[C@@H]1O [Example 85, N-(4-((1R,3R,4R,5S)-3-amino-4-hydroxy-5-methylcyclohexyl)pyridin-3-yl)-6-(2,6-difluoro-4-(2-hydroxy-2-methylpropyl)phenyl)-5-fluoropicolinamide]
19 | 0.02 | 0.95 | 0.45 | CCC(=O)c1cc(F)c(-c2nc(C(=O)Nc3cnccc3N3C[C@@H](N)[C@H](O)[C@@H](C)C3)ccc2F)c(F)c1 [Example 104, N-(4-((3R,4R,5S)-3-amino-4-hydroxy-5-methylpiperidin-1-yl)pyridin-3-yl)-6-(2,6-difluoro-4-propionylphenyl)-5-fluoropicolinamide]
43 | 0.14 | 15.3 | 11.4 | CCC(=O)c1cc(F)c(-c2nc(C(=O)Nc3cnccc3[C@@H]3C[C@H](C)C[C@H](N)C3)ccc2F)c(F)c1 [Example 43, N-(4-((1R,3S,5S)-3-amino-5-methylcyclohexyl)pyridin-3-yl)-6-(2,6-difluoro-4-propionylphenyl)-5-fluoropicolinamide]
84 | 0.02 | 2.77 | 0.85 | COC(C)(C)COc1cc(F)c(-c2nc(C(=O)Nc3cnccc3[C@@H]3C[C@H](C)C[C@H](N)C3)ccc2F)c(F)c1 [Example 46, N-(4-((1R,3S,5S)-3-amino-5-methylcyclohexyl)pyridin-3-yl)-6-(2,6-difluoro-4-(2-methoxy-2-methylpropoxy)phenyl)-5-fluoropicolinamide]
263 | 0.02 | 2.31 | 0.52 | C[C@H]1C[C@@H](c2ccncc2NC(=O)c2cccc(-c3c(F)cc(N4CCOCC4)cc3F)n2)C[C@@H](N)[C@@H]1O [Example 191, N-(4-((1R,3R,4R,5S)-3-amino-4-hydroxy-5-methylcyclohexyl)pyridin-3-yl)-6-(2,6-difluoro-4-morpholinophenyl)picolinamide]
72 | 0.04 | 3.97 | 1.09 | C[C@@H]1C[C@H](N)C[C@H](c2ccncc2NC(=O)c2ccc(F)c(-c3c(F)ccc(OC[C@H](O)CO)c3F)n2)C1 [Example 9, N-(4-((1R,3S,5S)-3-amino-5-methylcyclohexyl)pyridin-3-yl)-6-(3-((R)-2,3-dihydroxypropoxy)-2,6-difluorophenyl)-5-fluoropicolinamide]
1640 | 0.12 | 28.4 | 17.8 | C[C@@H]1C[C@H](N)C[C@H](c2ccncc2NC(=O)c2ccc(F)c(-c3c(F)cc(-c4ccnnc4)cc3F)n2)C1 [Example 142, N-(4-((1R,3S,5S)-3-amino-5-methylcyclohexyl)pyridin-3-yl)-6-(2,6-difluoro-4-(pyridazin-4-yl)phenyl)-5-fluoropicolinamide]
2510 | 0.45 | 37.4 | 16 | CCOCCOc1cc(F)c(-c2nc(C(=O)Nc3cnccc3[C@H]3C[C@@H](N)[C@H](O)[C@@H](C)C3)ccc2F)c(F)c1 [Example 141, N-(4-((1R,3R,4R,5S)-3-amino-4-hydroxy-5-methylcyclohexyl)pyridin-3-yl)-6-(4-(2-ethoxyethoxy)-2,6-difluorophenyl)-5-fluoropicolinamide]
7 | 0.02 | 0.97 | 0.29 | CCOc1cc(F)c(-c2nc(C(=O)Nc3cnccc3N3C[C@@H](N)[C@H](O)[C@@H](C)C3)ccc2F)c(F)c1 [Example 20, N-(4-((3R,4R,5S)-3-amino-4-hydroxy-5-methylpiperidin-1-yl)pyridin-3-yl)-6-(4-ethoxy-2,6-difluorophenyl)-5-fluoropicolinamide]
161 | 0.03 | 3.54 | 0.93 | COCCCOc1cc(F)c(-c2nc(C(=O)Nc3cnccc3[C@H]3C[C@@H](N)[C@H](O)[C@@H](C)C3)ccc2F)c(F)c1 [Example 184, N-(4-((1R,3R,4R,5S)-3-amino-4-hydroxy-5-methylcyclohexyl)pyridin-3-yl)-6-(2,6-difluoro-4-(3-methoxypropoxy)phenyl)-5-fluoropicolinamide]
60 | 0.03 | 2.38 | 0.89 | C[C@H]1C[C@@H](c2ccncc2NC(=O)c2ccc(F)c(-c3c(F)cc(OC4CCOC4)cc3F)n2)C[C@@H](N)[C@@H]1O (stereo in doubt) [Example 69, N-(4-((1R,3R,4R,5S)-3-amino-4-hydroxy-5-methylcyclohexyl)pyridin-3-yl)-6-(2,6-difluoro-4-((R)-tetrahydrofuran-3-yloxy)phenyl)-5-fluoropicolinamide]
23 | 0.02 | 1.69 | 0.94 | COCCc1cc(F)c(-c2nc(C(=O)Nc3cnccc3[C@@H]3C[C@H](C)C[C@H](N)C3)ccc2F)c(F)c1 [Example 67, N-(4-((1R,3S,5S)-3-amino-5-methylcyclohexyl)pyridin-3-yl)-6-(2,6-difluoro-4-(2-methoxyethyl)phenyl)-5-fiuoropicolinamide]
470 | 0.04 | 2.67 | 0.96 | CC(C)Oc1cc(F)c(-c2cccc(C(=O)Nc3cnccc3[C@H]3C[C@@H](N)[C@H](O)[C@@H](C)C3)n2)c(F)c1 [Example 189, N-(4-((1R,3R,4R,5S)-3-amino-4-hydroxy-5-methylcyclohexyl)pyridin-3-yl)-6-(2,6-difluoro-4-isopropoxyphenyl)picolinamide]
47 | 0.05 | 3.01 | 2.07 | C[C@@H]1C[C@H](N)C[C@H](c2ccncc2NC(=O)c2ccc(F)c(-c3c(F)cc([C@@H](O)CO)cc3F)n2)C1 [Example 232, N-(4-((1R,3S,5S)-3-amino-5-methylcyclohexyl)pyridin-3-yl)-6-(4-((R)-1,2-dihydroxyethyl)-2,6-difluorophenyl)-5-fluoropicolinamide]
32 | 0.03 | 1.07 | 0.37 | COc1ccc(F)c(-c2nc(C(=O)Nc3cnccc3N3C[C@@H](N)[C@H](O)[C@@H](C)C3)ccc2F)c1F [Example 214, N-(4-((3R,4R,5S)-3-amino-4-hydroxy-5-methylpiperidin-1-yl)pyridin-3-yl)-6-(2,6-difluoro-3-methoxyphenyl)-5-fluoropicolinamide]
13 | 0.02 | 1.52 | 1 | C[C@@H]1C[C@H](N)C[C@H](c2ccncc2NC(=O)c2ccc(F)c(-c3c(F)cc(CCO)cc3F)n2)C1 [Example 33, N-(4-((1R,3S,5S)-3-amino-5-methylcyclohexyl)pyridin-3-yl)-6-(2,6-difluoro-4-(2-hydroxyethyl)phenyl)-5-fluoropicolinamide]
17 | 0.01 | 1.36 | 0.42 | CC(C)[C@@H]1C[C@H](N)C[C@H](c2ccncc2NC(=O)c2ccc(F)c(-c3c(F)cc(C(C)(C)O)cc3F)n2)C1 [Example 119, N-(4-((1R,3S,5S)-3-amino-5-isopropylcyclohexyl)pyridin-3-yl)-6-(2,6-difluoro-4-(2-hydroxypropan-2-yl)phenyl)-5-fluoropicolinamide]
36 | 0.01 | 0.39 | 0.18 | C[C@H]1CN(c2ccncc2NC(=O)c2ccc(F)c(-c3c(F)cc(C4(F)CCOCC4)cc3F)n2)C[C@@H](N)[C@@H]1O [Example 195, N-(4-((3R,4R,5S)-3-amino-4-hydroxy-5-methylpiperidin-1-yl)pyridin-3-yl)-6-(2,6-difluoro-4-(4-fluorotetrahydro-2H-pyran-4-yl)phenyl)-5-fluoropicolinamide]
1020 | 0.08 | 30 | 10.1 | Cc1noc(C)c1-c1cc(F)c(-c2nc(C(=O)Nc3cnccc3[C@@H]3C[C@H](C)C[C@H](N)C3)ccc2F)c(F)c1 [Example 174, N-(4-((1R,3S,5S)-3-amino-5-methylcyclohexyl)pyridin-3-yl)-6-(4-(3,5-dimethylisoxazol-4-yl)-2,6-difluorophenyl)-5-fluoropicolinamide]
29 | 0.02 | 0.96 | 0.32 | CSc1cc(F)c(-c2nc(C(=O)Nc3cnccc3N3C[C@@H](N)[C@H](O)[C@@H](C)C3)ccc2F)c(F)c1 [Example 23, N-(4-((3R,4R,5S)-3-amino-4-hydroxy-5-methylpiperidin-1-yl)pyridin-3-yl)-6-(2,6-difluoro-4-(methylthio)phenyl)-5-fluoropicolinamide]
526 | 0.09 | 5.58 | 6.34 | CCOC(C)(C)c1cc(F)c(-c2nc(C(=O)Nc3cnccc3[C@H]3C[C@@H](N)[C@H](O)[C@@H](C)C3)ccc2F)c(F)c1 [Example 146, N-(4-((1R,3R,4R,5S)-3-amino-4-hydroxy-5-methylcyclohexyl)pyridin-3-yl)-6-(4-(2-ethoxypropan-2-yl)-2,6-difluorophenyl)-5-fluoropicolinamide]
